Data reported in patent US20190053489A1, “ANTIMICROBIAL COMPOSITION” (NATIONAL UNIVERSITY CORPORATION TOKYO MEDICAL AND DENTAL …, priority 2016, published 2019).

What was measured:
pseudomonas aeruginosa = test: Observation of morphological change in pseudomonas aeruginosa by electron microscope; format: cell-based
Protocol: (§1) Next, the morphological change in MRSA was observed by using a transmission electron microscope. This observation with a transmission electron microscope was carried out as follows: the sample was sliced in 50 nm with a diamond knife as the pretreatment and was stained with uranium acetate and lead citrate, and a transmission electron microscope (JEM-1400 manufactured by JEOL Ltd.) was used. In addition, the samples were MRSA added with physiological saline and MRSA added with a lysozyme-chitosan complex with a concentration of 0.2% by mass.
Note that the morphological change in the case of adding the lysozyme-chitosan complex to pseudomonas aeruginosa was also observed using a transmission electron microscope in the same manner as above. […] In other words, the lysozyme-chitosan complex also has a resistant microbe inactivation effect for pseudomonas aeruginosa.
(§2) Observation was carried out with a scanning electron microscope for the morphological changes in MRSA and pseudomonas aeruginosa treated with the lysozyme-chitosan complex, lysozyme alone, chitosan alone, and the mixture of lysozyme and chitosan (treatment time: 2 hours). This observation with a scanning electron microscope was carried out in the same manner as Example 8 described above: osmium coating (4 nm) was performed as the conductive treatment, and a low-acceleration ultra-high resolution scanning electron microscope (SU 9000 manufactured by Hitachi High-Technologies Corporation (accelerating voltage: 1 kV)) was used. In addition, the samples were MRSA or pseudomonas aeruginosa added with physiological saline, a lysozyme-chitosan complex with a concentration of 0.1% by mass, lysozyme of 0.05% by mass, chitosan of 0.05% by mass, and a mixture of lysozyme and chitosan, each with 0.05% by mass.

[1] = tested on: Mycobacterium avium Chester JCM15429; test: Proliferation suppression against pulmonary MAC in a diluted medium (OD600); format: cell-based
Protocol: This test employed Mycobacterium avium Chester JCM15429, and this microbe strain was cultured in a Middlebrook 7H9 medium at 37° C. for 2 weeks. The cultured microbial solution was collected by centrifugation (3000 rpm, 10 minutes), suspended with sterilized water, and then diluted with sterilized water so that the optical density would satisfy OD600 =1.0. The resultant was diluted 2000 times (corresponding to 10^6 CFU/ml) to prepare a reaction microbial solution.
Each of the Middlebrook 7H9 test medium samples was added with 100 μl of reaction microbial solution and was statically cultured under the condition of 37° C. Here, the Middlebrook 7H9 test medium samples were prepared using 10 ml of 1/2.5 Middlebrook 7H9 medium added with
(1) 10 ml of sterilized water, (2) 10 ml of the lysozyme-chitosan complex with a concentration of 0.002% (the concentration after addition was […]), (3) 10 ml of the lysozyme-chitosan complex with a concentration of 0.02% (the concentration after addition was 0.01%), (4) 10 ml of the lysozyme-chitosan complex with a concentration of 0.2% (the concentration after addition was 0.1%), (5) 10 ml of lysozyme alone with a concentration of 0.1% (the concentration after addition was 0.05%), (6) 10 ml of chitosan alone with a concentration of 0.1% (the concentration after addition was 0.05%), and (7) 10 ml of the mixture of lysozyme and chitosan with a concentration of 0.1% (the concentration of each after addition was 0.05%).
After that, 3 ml was extracted at time intervals (0, 5, 7, and 12 days), and the optical density was measured at an absorption wavelength of 600 nm. In addition, 100 μl was extracted when necessary and seeded on the Middlebrook 7H10 agar medium, and the number of colonies produced was observed.

MRSA IID 1677 [2] = test: Proliferation suppression against MRSA in a diluted medium (OD600); format: cell-based, Methicillin-Resistant Staphylococcus Aureus (MRSA); details: diluted 1/2.5 LB medium, 37° C., OD 600 nm; complex 0.001%, lysozyme, chitosan and each of mixture 0.0005%; FIG. 1
Protocol: This test employed MRSA IID 1677, and this microbe strain was cultured in a normal broth medium at 37° C. for 20 hours. The cultured microbial solution was collected by centrifugation (3000 rpm, 10 minutes), suspended with sterilized water, and then diluted with sterilized water so that the optical density would satisfy OD600=1.0. The resultant was diluted 2000 times (corresponding to 10^6 CFU/ml) to prepare a reaction microbial solution.
Each of the LB test medium samples was added with 100 μl of reaction microbial solution and was shake cultured under the condition of 37° C. for 48 hours. Here, the LB test medium samples were prepared using 10 ml of 1/2.5 LB medium added with
(1) 10 ml of sterilized water, (2) 10 ml of the lysozyme-chitosan complex with a concentration of 0.002% (the concentration after addition was 0.001%), (3) 10 ml of lysozyme alone with a concentration of 0.001% (the concentration after addition was 0.0005%), (4) 10 ml of chitosan alone with a concentration of 0.001% (the concentration after addition was 0.0005%), and (5) 10 ml of the mixture of lysozyme and chitosan with a concentration of 0.001% (the concentration of each after addition was 0.0005%).
After that, 3 ml was extracted at time intervals (0, 1, and 2 days), and the optical density was measured at an absorption wavelength of 600 nm. […]

MRSA = test: Observation of morphological change in MRSA by electron microscope; format: cell-based, Methicillin-Resistant Staphylococcus Aureus (MRSA)
Protocol: First, the morphological change in MRSA was observed by using a scanning electron microscope. This observation with a scanning electron microscope was carried out as follows: osmium coating (4 nm) was performed as the conductive treatment, and a low-acceleration ultra-high resolution scanning electron microscope (SU 9000 manufactured by Hitachi High-Technologies Corporation (accelerating voltage: 1 kV)) was used. In addition, the samples were MRSA added with physiological saline and MRSA added with a lysozyme-chitosan complex with a concentration of 0.2% by mass.
as §1, §2

MRSA IID 1677 [3] = test: MRSA-resistant microbe acquisition protocol (microdilution method); format: cell-based, Methicillin-Resistant Staphylococcus Aureus (MRSA); details: subculture 25 generations; FIG. 12
Protocol: This test employed MRSA IID 1677, and a resistant microbe acquisition protocol was carried out by use of the microdilution method proposed by Japanese Society of Chemotherapy.

Substance: lysozyme-chitosan complex: complex of lysozyme and water-soluble chitosan (molecular weight 14000 Da) bound to each other through the Maillard reaction
- morphological change in pseudomonas aeruginosa, transmission electron microscope (pseudomonas aeruginosa; FIG. 15): destroys the cell walls of pseudomonas aeruginosa
- morphological change in pseudomonas aeruginosa, scanning electron microscope, treatment time 2 hours (pseudomonas aeruginosa; complex 0.1% by mass, lysozyme 0.05%, chitosan 0.05%, mixture each 0.05%, FIG. 17): changed to a large extent
- proliferation suppression effect against pulmonary MAC over 7 days, medium with phosphate buffer ([1]; Middlebrook 7H9 test medium further added with 10 mM phosphate buffer (pH 7.0), FIG. 5): marked proliferation suppression effect
- proliferation suppression effect against pulmonary MAC, classified by concentration ([1]; diluted Middlebrook 7H9 medium, complex 0.0010, 0.01%, 0.1% after addition, FIG. 3): increased as the concentration of the lysozyme-chitosan complex increased
- proliferation suppression effect against pulmonary MAC over 7 days ([1]; diluted Middlebrook 7H9 medium, complex 0.1% vs lysozyme, chitosan, mixture 0.05% each, FIG. 4): marked proliferation suppression effect
- proliferation suppression effect against MRSA for 48 hours (MRSA IID 1677 [2]): marked improvement effect compared to lysozyme alone and the mixture of lysozyme and chitosan
- morphological change in MRSA, scanning electron microscope, treatment time 2 hours (MRSA; complex 0.1% by mass, lysozyme 0.05%, chitosan 0.05%, mixture each 0.05%, FIG. 16): the form of MRSA has changed
- morphological change in MRSA, scanning electron microscope (MRSA; complex 0.2% by mass, FIG. 13): fibrous adhesions have appeared on the outer surface of MRSA
- morphological change in MRSA, transmission electron microscope (MRSA; complex 0.2% by mass, FIG. 14): fibrous structures (DNA) inside MRSA have disappeared
- change of MIC (minimum inhibitory concentration) on subculture (MRSA IID 1677 [3]): hardly changed
